Results as given in US8796416B1, “ACTH prophylactic treatment of renal disorders” (Questcor Pharmaceuticals, Inc, priority 2010, dated 2014).

System: melanocortin receptor
Test: Melanocortin receptor modulation by ACTH1-39 (applicants' finding, no method given)

- melanocortin receptor modulation: pan-melanocortin receptor modulator
Substance: H-Ser-Tyr-Ser-Met-Glu-His-Phe-Arg-Trp-Gly-Lys-Pro-Val-Gly-Lys-Lys-Arg-Arg-Pro-Val-Lys-Val-Tyr-Pro-Asp-Gly-Ala-Glu-Asp-Gln-Leu-Ala-Glu-Ala-Phe-Pro-Leu-Glu-Phe-OH (H-SYSMEHFRWGKPVGKKRRPVKVYPDGAEDQLAEAFPLEF-OH) [ACTH1-39]
